# In patent publication US20150057305A1, “PHARMACEUTICAL COMPOSITION” (SHANGHAI HOTMED SCIENCES CO., LTD., priority 2012, published 2015):
# How the values were obtained:
# [1] = dog, in vivo; cited from earlier work
# [2] = Distribution coefficient (n-octanol-water) shake flask method GB/T 21853-2008; type: physicochemical; conditions: in water
# [3] = cited from earlier work
# Solubility in water = type: physicochemical
Compound,oral bioavailability [1],Lg Po/w [2],stability in human plasma [3],solubility in water (Solubility in water)
"CC[C@@]1(O)C(=O)OCc2c1cc1n(c2=O)Cc2cc3c([N+](=O)[O-])cccc3nc2-1 [Example 9-NC, 9-nitro-camptothecin]",less than 6%,–,–,–
CC[C@@]1(OC(=O)OCC(C)C)C(=O)OCc2c1cc1n(c2=O)Cc2cc3c([N+](=O)[O-])cccc3nc2-1 [the compound of formula I],–,7.31,good stability,almost insoluble in water
